From patent publication US20210254056A1, “IDENTIFICATION AND TARGETED MODULATION OF GENE SIGNALING NETWORKS” (CAMP4 THERAPEUTICS CORPORATION, priority 2017, published 2021)

Columns and labels:
[1] = tested on: primary human hepatocytes; test: qRT-PCR validation of gene expression in hepatocytes from a second donor; format: cell-based
Description: qRT-PCR was performed on samples of primary human hepatocytes from a second donor. […] The 58 liver disease associated genes analyzed were ACADVL, ACAT2, ACSL1, ACSL5, AGPAT2, AGTR1, AHSG, ALAS1, AMACR, ANGPTL2, ARG1, CA12, CA2, CIDEC, COL1A1, CPS1, CPT1A, CPT2, CYP21A2, CYP2C19, CYP3A4, CYP7A1, ECH1, ENO3, ETFDH, FABP1, FABP6, G6PC, GHR, GLA, GYS2, HGD, HMGCR, HMGCS2, HMOX1, HOGA1, HPGD, IFT27, LDHA, LPIN2, MOGAT2, NCF2, PCSK9, POR, RMRP, SLC25A20, SLC2A2, SLC37A4, SLC51B, SLC6A20, SLC6A6, SOAT2, SULT2A1, TAT, TDO2, TMEM135, TNFSF11, and VLDLR as shown in Example 2.

[2] = tested on: primary human hepatocytes; test: RNA-seq of primary human hepatocytes treated with 39 small molecules (pilot and validation); conditions: for RNA-seq fold Δ (Log2): primary human hepatocytes; for Expected fold Δ: fold expected from RNA-seq Log2

CCOC(=O)N1c2ccc(C(F)(F)F)cc2[C@@H](N(Cc2cc(C(F)(F)F)cc(C(F)(F)F)c2)C(=O)OC)C[C@H]1CC [Torcetrapib]
Fold Δ ([1]; ACAT2 gene): 2.87 fold
Fold Δ ([1]; CYP7A1 gene): 0.85 fold
Fold Δ ([1]; HMGCR gene): 4.02 fold
Fold Δ ([1]; PCSK9 gene): 5.76 fold
Fold Δ ([1]; TNFS11 gene): 1.01 fold
RNA-seq fold Δ (Log2) ([2]; ACAT2 gene): 1.22 Log2
Expected fold Δ ([2]; ACAT2 gene): 2.33 fold
RNA-seq fold Δ (Log2) ([2]; CYP7A1 gene): −1.42 Log2
Expected fold Δ ([2]; CYP7A1 gene): 0.37 fold
RNA-seq fold Δ (Log2) ([2]; HMGCR gene): 1.26 Log2
Expected fold Δ ([2]; HMGCR gene): 2.39 fold
RNA-seq fold Δ (Log2) ([2]; PCSK9 gene): 1.07 Log2
Expected fold Δ ([2]; PCSK9 gene): 2.10 fold
RNA-seq fold Δ (Log2) ([2]; TNFS11 gene): 1.09 Log2
Expected fold Δ ([2]; TNFS11 gene): 2.13 fold
